Columns and labels:
[1] = system: neutrophils; details: reported; cited from earlier work
[2] = system: human neutrophils; assay: total ROS production of isolated human neutrophils after PMA; assay type: cell-based; details: 10 μM; after 50 min of 100 nM PMA; ICAM-1-coated wells
Protocol: ROS production of isolated human neutrophils was quantified by using the Total ROS Assay kit from Invitrogen. A black, clear bottom, non-treated 96-well plate was used in this assay. Before the assay, the 96-well plate was coated with 10 μg·mL^−1 human ICAM-1-Fc at RT for 2 hours and washed twice with PBS. […] After centrifuging at 300×g, RT for 2 min, cells were resuspended at 10^6 cells·mL^−1 in the ROS Assay Stain Solution from the kit and incubated with 2 μg·mL^−1 mouse anti-human CD18 blocking mAb (TS1/18 to block neutrophil adhesion) or isotype control at RT for 10 min. The 100 μL·well^−1 neutrophils (3 replicates per group) were seeded into the ICAM-1-coated 96-well plate. The background ROS before stimulation was measured by Cytation 1 Cell Imaging Multi-Mode Reader (Filter set: Green, Ex: 485/20 nm, Em: 528/20 nm, BioTek, Santa Clara, CA). Then 100 nM PMA was added to each well, and ROS production was measured by Cytation 1 Cell Imaging Multi-Mode Reader every 5 minutes.

[3] = system: human neutrophils; assay: microfluidic perfusion assay: neutrophil rolling and arrest on P-selectin/ICAM-1 with IL-8; assay type: cell-based; details: 10 μM
Protocol: The assembly of the microfluidic devices used in this study and the coating of coverslips with recombinant human P-selectin-Fc and ICAM-1-Fc with or without IL-8 have been described previously. Briefly, coverslips were coated with P-selectin-Fc (2 μg·ml^−1) and ICAM-1-Fc (10 μg·ml^−1) without or with IL-8 (10 μg·ml^−1) for two hours and then blocked for one hour with casein (1%) at RT. After coating, coverslips were sealed with polydimethylsiloxane chips by magnetic clamps to create flow chamber channels ˜29 μm high and ˜300 μm across. By modulating the pressure between the inlet well and the outlet reservoir, 6 dyn·cm^−2 wall shear stress was applied in all experiments.
To study the rolling and arrest of neutrophils, isolated human neutrophils (5×10^6 cells·ml^−1) were perfused in the microfluidic device over a substrate of recombinant human P-selectin-Fc and recombinant human ICAM-1-Fc with or without IL-8 under a shear stress of 6 dyn·cm^−2. […] Time-lapse images (one frame per second) were taken by an IX71 inverted research microscope (Olympus America) with a 40× NA 0.9 air objective during the perfusion to quantify rolling velocity. The quantification was done using the “Manual tracking” plugin in FIJI-ImageJ v2.0. Cell tracks (FIG. 1A) and rolling velocity were obtained (FIGS. 1B, 2C). After perfusion with neutrophils for 10 minutes, the microfluidic device was washed with RPMI-1640 without phenol red plus 2% HSA for 5 minutes. Then, the arrested neutrophils were counted in nine fields-of-view per group (FIG. 1D).

[4] = system: Rac-1 activation in human neutrophils; assay: Rac-1-GTP pull-down and western blot in human neutrophils; assay type: cell-based; details: 10 μM, RT 1 hour, IL-8 1 μg·mL^−1, increase about 60% without drug
[5] = system: human neutrophils; details: 1 and 4 hours of incubation; previous study; cited from earlier work
[6] = system: mouse myocardial I/R injury; assay: infarct size (TTC-phthalo-blue staining) and left ventricle echocardiogram in mouse myocardial I/R injury; assay type: in vivo
Protocol: Mice were subjected to 35 minutes of myocardial ischemia and 1 (for multi-photon microscopy and flow cytometry) or 22-26 (for TTC-phthalo-blue staining) hours of reperfusion. […] Briefly, anesthesia was induced with an intraperitoneal injection of ketamine hydrochloride (125 mg·kg^−1) and xylazine (12.5 mg·kg^−1). Mice were intubated with 24G×3/4″ Surflo i.v. catheter and ventilated using MiniVent 845 (Harvard Apparatus).
Surgeries were performed under an SMZ168 Stereo Zoom microscope (Motic). Ischemia was achieved by ligating the left anterior descending coronary artery (LAD) using a 6-0 silk suture with a section of PE-10 tubing placed over the LAD, 1 mm from the tip of the normally positioned left atrium. One important problem in drug administration is water solubility, which greatly affects drug absorption and bioavailability. […] In clinics, the primary percutaneous coronary intervention aims to be performed less than 90 min (within 60 min is preferable) after the patient arrives. […] After occlusion for 35 minutes, reperfusion was initiated by releasing the ligature and removing the PE-10 tubing. The chest wall was closed, the animal extubated, and body temperature was maintained by use of a 37° C. warm pad. Hearts were harvested 1 or 22-26 hours later. The loosened suture was left in place and then retied for the purpose of evaluating the ischemic area. […]
To assess the ischemic area at risk after 22-26 hours of reperfusion, hearts were excised, infused with PBS and freshly prepared 10% phthalo-blue (PBS with 0.75% tween 20) through the aorta and coronary arteries in a retrograde fashion, frozen at −20° C. for 10 minutes, and sliced into five to six 1 mm cross-sections with the aid of a pre-freeze acrylic matrix (ZIVIC Labs). […] The infarct area (white), the area at risk (red and white), and the total left ventricle area from each section were measured using ZEN v3.1 (Zeiss). Ratios of infarct area/area at risk (FIG. 5B) and of area at risk/left ventricle (FIG. 5C) were calculated and expressed as percentages.
To quantify left ventricle function, we performed echocardiograms on mice before and seven days after myocardial I/R injury. […] Echocardiography loops were recorded in B and two-dimensional-targeted M modes in longitudinal and short-axis views on a Vevo 3100 High-Resolution Imaging System equipped with an MX550D transducer (VisualSonics, Toronto, ON, Canada). Mice were fixed on a heated table and heart rate was monitored during the procedure. […] Left ventricular ejection fraction was determined by left ventricle tracing relating the end-systolic left ventricle area as the minimal left ventricle cross-sectional area to the end-diastolic left ventricle area as the maximum left ventricle cross-sectional area in long-axis views. […]

CC(C)(C)C(=O)/C(=C\c1cccc([N+](=O)[O-])c1)n1cncn1 [Nexinhib20, 4,4-dimethyl-1-(3-nitrophenyl)-2-(1H-1,2,4-triazol-1-yl)-1-penten-3-one]
inhibition of neutrophil extracellular superoxide anion production [1]: about 50% | total ROS production [2]: significantly reduced | effect of IL-8 on rolling velocity of treated neutrophils ([3]; RT 1 hour): did not slow down | neutrophil arrest on IL-8 substrate ([3]; RT 1 hour before perfusion): failed to arrest | decrease of number of arrested neutrophils ([3]; RT 1 hour, P-selectin/ICAM-1/IL-8, 6 dyn·cm^−2): about 90% | number of arrested neutrophils ([3]; RT 1 hour, P-selectin/ICAM-1/IL-8, 6 dyn·cm^−2, vehicle about 200): about 20 cells per field-of-view | IL-8-induced increase of Rac-1-GTP [4]: eliminated these increases | cell death compared to DMSO vehicle controls [5]: did not induce a significant increase in cell death | infarct area percentage (infarct area/area at risk) ([6]; I/R 35 min/24 hours, i.p. 30 minutes before reperfusion, vehicle about 50%): about 40% | change of ejection fraction after myocardial I/R injury ([6]; echocardiogram before and 7 days after I/R, vehicle reduced by about 25%): no significant reduction | change of fractional shortening after myocardial I/R injury ([6]; echocardiogram before and 7 days after I/R, vehicle reduced by about 30%): no significant reduction | reduction of infarct size ([6]; mouse myocardial I/R injury): about 20%

From US20240041838A1, “METHODS AND COMPOSITIONS FOR INHIBITION OF NEUTROPHIL RECRUITMENT IN MYCOCARDIAL ISCHEMIA-REPERFUSION INJURY” (University of Connecticut, priority 2022, published 2024)
